From DBAASP
Converted amounts (≈) assume the structure as drawn. One block for each compound: values may come before it.

Assays:
Experiment in all cases: ≥ marks a high value that may be exact or a test limit, other limits are often not marked, values filed in µg/mL are converted to µM
[1] = tested on: Proteus mirabilis
[2] = tested on: Shigella dysenteriae
[3] = tested on: Escherichia coli
[4] = tested on: Pseudomonas aeruginosa
[5] = tested on: Staphylococcus epidermidis
[6] = tested on: Salmonella typhimurium
[7] = tested on: Staphylococcus aureus
[8] = tested on: Klebsiella pneumoniae
[9] = tested on: Bacillus subtilis
[10] = tested on: Micrococcus luteus
[11] = tested on: Staphylococcus aureus USA 300
[12] = tested on: Escherichia coli K-12
[13] = tested on: Bacillus subtilis ATCC 6633
[14] = tested on: Escherichia coli DH5alpha
[15] = tested on: Escherichia coli ATCC 10536
[16] = tested on: Staphylococcus aureus ATCC 9144
[17] = tested on: Pseudomonas aeruginosa PAO1
[18] = tested on: Klebsiella pneumoniae ATCC 13883
[19] = tested on: Escherichia coli ATCC 25922
[20] = tested on: Listeria monocytogenes LO28
[21] = tested on: Cronobacter sakazakii DPC 6440
[22] = tested on: Staphylococcus aureus ATCC 25923
[23] = tested on: Candida albicans
[24] = tested on: Pseudomonas aeruginosa H103
[25] = tested on: Escherichia coli UB1005
[26] = tested on: Salmonella enterica serovar Typhimurium
[27] = tested on: Enterococcus faecalis ATCC 29212
[28] = tested on: Escherichia coli ML-35p
[29] = tested on: Staphylococcus aureus RN4220

Compound: CC(C)C[C@H](NC(=O)[C@H](C)NC(=O)CNC(=O)[C@H](CC(C)C)NC(=O)[C@@H](N)Cc1ccccc1)C(=O)N[C@@H](Cc1ccccc1)C(=O)N[C@@H](CCCCN)C(=O)N[C@@H](Cc1ccccc1)C(=O)N[C@@H](C)C(=O)N[C@@H](CO)C(=O)N[C@@H](CCCCN)C(=O)O [FLGALFKFASK]
MIC [1]: ≥ 163 µM | MIC [2]: ≥ 81.4 µM | MIC [3]: 81.4 µM (≈ 100 µg/mL) | MIC [4]: > 163 µM | MIC [5]: ≥ 81.4 µM | MIC [6]: ≥ 163 µM | MIC [7]: 40.7 µM (≈ 50 µg/mL) | MIC [8]: 81.4 µM (≈ 100 µg/mL) | MIC [9]: 20.4 µM (≈ 25 µg/mL) | MIC [10]: 20.4 µM (≈ 25 µg/mL)

Compound: CC(C)[C@H](NC(=O)[C@H](CO)NC(=O)[C@H](Cc1cnc[nH]1)NC(=O)[C@H](Cc1ccccc1)NC(=O)[C@H](C)NC(=O)[C@H](CCCCN)NC(=O)CNC(=O)[C@H](Cc1ccccc1)NC(=O)CN)C(=O)N[C@@H](CO)C(=O)N[C@@H](CC(N)=O)C(=O)N[C@@H](Cc1ccccc1)C(=O)N[C@@H](C)C(=O)N[C@@H](CCCCN)C(=O)N[C@@H](CCCCN)C(=O)N[C@@H](Cc1cnc[nH]1)C(=O)N[C@@H](CCCCN)C(=O)N[C@H](C(=O)N[C@@H](C)C(N)=O)[C@@H](C)O [GFGKAFHSVSNFAKKHKTA]
MIC [11]: ≥ 100 µM | MIC [12]: ≥ 100 µM

Compound: CC[C@H](C)[C@H](NC(=O)CN)C(=O)NCC(=O)N[C@@H](C)C(=O)N[C@H](C(=O)N[C@@H](CC(C)C)C(=O)N[C@@H](CCCCN)C(=O)N[C@H](C(=O)N[C@@H](C)C(=O)N[C@H](C(=O)N[C@H](C(=O)NCC(=O)N[C@@H](CC(C)C)C(=O)N1CCC[C@H]1C(=O)N[C@@H](C)C(=O)N[C@@H](C)C(=O)N[C@H](C(=O)N[C@@H](CO)C(=O)N[C@@H](Cc1c[nH]c2ccccc12)C(=O)N[C@H](C(=O)N[C@@H](CCCCN)C(=O)N[C@@H](CCCN=C(N)N)C(=O)N[C@@H](CCCCN)C(=O)N[C@@H](CCCN=C(N)N)C(=O)N[C@@H](CCC(N)=O)C(=O)N[C@@H](CCC(N)=O)C(N)=O)[C@@H](C)CC)[C@@H](C)CC)[C@@H](C)O)[C@@H](C)O)C(C)C)C(C)C [GIGAVLKVATTGLPAAISWIKRKRQQ]
MIC [13]: 6 µM (≈ 16.6 µg/mL) | MIC [14]: 4.2 µM (≈ 11.6 µg/mL) | MIC [15]: 3.3 µM (≈ 9.12 µg/mL) | MIC [16]: 4 µM (≈ 11 µg/mL)

Compound: CC(C)C[C@H](NC(=O)[C@H](CC(C)C)NC(=O)[C@H](CCCCN)NC(=O)[C@H](CC(C)C)NC(=O)CNC(=O)[C@H](CC(C)C)NC(=O)[C@H](CCCCN)NC(=O)[C@H](CC(C)C)NC(=O)[C@H](CC(C)C)NC(=O)[C@H](CC(C)C)NC(=O)[C@H](CO)NC(=O)[C@H](CC(C)C)NC(=O)CN)C(N)=O [GLSLLLKLGLKLL]
MIC [11]: 1.13 µM (≈ 1.56 µg/mL) | MIC [17]: > 25 µM | MIC [18]: 25 µM (≈ 34.5 µg/mL) | MIC [19]: > 25 µM

Compound: NC(=O)[C@H](CCCN=C(N)N)NC(=O)[C@H](CCCN=C(N)N)NC(=O)[C@H](Cc1c[nH]c2ccccc12)NC(=O)[C@H](CCCN=C(N)N)NC(=O)[C@H](CCCN=C(N)N)NC(=O)[C@H](Cc1c[nH]c2ccccc12)NC(=O)[C@H](Cc1c[nH]c2ccccc12)NC(=O)[C@H](CCCN=C(N)N)NC(=O)[C@@H](N)CCCN=C(N)N [RRWWRRWRR]
MIC [28]: 25 µM (≈ 37.8 µg/mL) | MIC [29]: ≥ 100 µM

Compound: NCCCC[C@H](NC(=O)[C@H](CCCN=C(N)N)NC(=O)[C@H](CCCN=C(N)N)NC(=O)[C@H](Cc1c[nH]c2ccccc12)NC(=O)[C@@H](N)CCCN=C(N)N)C(=O)N[C@@H](Cc1c[nH]c2ccccc12)C(=O)N[C@@H](Cc1c[nH]c2ccccc12)C(=O)N[C@@H](Cc1c[nH]c2ccccc12)C(=O)N[C@@H](Cc1c[nH]c2ccccc12)C(=O)O [RWRRKWWWW]
MIC [22]: 0.7 µM (≈ 1.08 µg/mL) | MIC [27]: 2.8 µM (≈ 4.33 µg/mL) | MIC [23]: 5.6 µM (≈ 8.66 µg/mL) | MIC [24]: 11.2 µM (≈ 17.3 µg/mL) | MIC [25]: 1.4 µM (≈ 2.16 µg/mL) | MIC [5]: 0.7 µM (≈ 1.08 µg/mL) | MIC [26]: 2.8 µM (≈ 4.33 µg/mL)

Compound: CC[C@H](C)[C@H](NC(=O)[C@@H](N)Cc1c[nH]c2ccccc12)C(=O)N[C@@H](C)C(=O)N1CCC[C@H]1C(=O)N[C@@H](CCCCN)C(=O)N[C@H](C(=O)N[C@@H](CCCCN)C(=O)N[C@H](C(=O)N[C@H](C(=O)N1CCC[C@H]1C(=O)N[C@@H](Cc1ccc(O)cc1)C(=O)N[C@H](C(=O)N[C@@H](CCCN=C(N)N)C(=O)N[C@@H](Cc1ccc(O)cc1)C(=O)N[C@@H](CC(C)C)C(=O)O)C(C)C)[C@@H](C)CC)C(C)C)[C@@H](C)O [WIAPKTKVIPYVRYL]
MIC [20]: 19.5 µM (≈ 36.1 µg/mL) | MIC [21]: ≥ 78.1 µM

Compound: CC[C@H](C)[C@H](NC(=O)[C@@H](N)Cc1c[nH]c2ccccc12)C(=O)N[C@@H](CCC(N)=O)C(=O)N1CCC[C@H]1C(=O)N[C@@H](CCCCN)C(=O)N[C@H](C(=O)N[C@@H](CCCCN)C(=O)N[C@H](C(=O)N[C@H](C(=O)N1CCC[C@H]1C(=O)N[C@@H](Cc1ccc(O)cc1)C(=O)N[C@H](C(=O)N[C@@H](CCCN=C(N)N)C(=O)N[C@@H](Cc1ccc(O)cc1)C(=O)N[C@@H](C)C(=O)O)C(C)C)[C@@H](C)CC)C(C)C)[C@@H](C)O [WIQPKTKVIPYVRYA]
MIC [20]: ≥ 39.1 µM | MIC [21]: ≥ 78.1 µM

More lines, now with the values ahead:

MIC [20]: ≥ 156 µM | MIC [21]: ≥ 1250 µM
Compound: CC[C@H](C)[C@H](NC(=O)[C@H](Cc1c[nH]c2ccccc12)NC(=O)[C@@H]1CCCN1C(=O)[C@H](CCCCN)NC(=O)[C@H](CCSC)NC(=O)[C@H](C)NC(=O)[C@@H](N)CCCCN)C(=O)N[C@@H](CCC(N)=O)C(=O)N1CCC[C@H]1C(=O)N[C@@H](CCCCN)C(=O)N[C@H](C(=O)N[C@@H](CCCCN)C(=O)N[C@H](C(=O)N[C@H](C(=O)N1CCC[C@H]1C(=O)O)[C@@H](C)CC)C(C)C)[C@@H](C)O [KAMKPWIQPKTKVIP]

MIC [22]: 7.5 µM (≈ 12 µg/mL) | MIC [23]: 3.75 µM (≈ 6 µg/mL) | MIC [24]: 3.75 µM (≈ 6 µg/mL) | MIC [25]: 1.88 µM (≈ 3 µg/mL) | MIC [5]: 1 µM (≈ 1.6 µg/mL) | MIC [26]: 3.75 µM (≈ 6 µg/mL)
Compound: CC[C@H](C)[C@H](NC(=O)[C@H](CCCN=C(N)N)NC(=O)[C@H](Cc1ccccc1)NC(=O)[C@H](CCC(N)=O)NC(=O)[C@@H](N)CCCCN)C(=O)N[C@@H](CCCN=C(N)N)C(=O)N[C@H](C(=O)N[C@@H](CCCN=C(N)N)C(=O)N[C@H](C(=O)N[C@H](C(=O)N[C@@H](CCCN=C(N)N)C(=O)N[C@@H](CCCCN)C(N)=O)[C@@H](C)CC)C(C)C)C(C)C [KQFRIRVRVIRK]

MIC [22]: > 176 µM | MIC [27]: > 176 µM | MIC [23]: > 176 µM | MIC [24]: ≥ 176 µM | MIC [25]: ≥ 176 µM | MIC [5]: ≥ 176 µM | MIC [26]: ≥ 176 µM
Compound: CC[C@H](C)[C@H](NC(=O)[C@H](CCCN=C(N)N)NC(=O)[C@H](C)NC(=O)[C@H](CC(C)C)NC(=O)[C@@H](N)CCCN=C(N)N)C(=O)N[C@H](C(=O)N1CCC[C@H]1C(=O)N[C@H](C(=O)N[C@@H](CCCN=C(N)N)C(=O)N[C@H](C(=O)N[C@@H](C)C(=O)N[C@@H](CCCN=C(N)N)C(=O)O)C(C)C)[C@@H](C)CC)C(C)C [RLARIVPIRVAR]
